{
  "source": "patent US20150034084A1",
  "about": "“[…] NITRIC OXIDE FOR TREATING RESPIRATORY DISEASES” (Advanced Inhalation Therapies (AIT) Ltd., priority 2012, published 2015)",
  "key": {"[1]": {"system": "human respiratory syncytial virus (rgRSV30)", "test": "RSV exposure to 160 ppm gNO for 30 minutes, plaque/fluorescence assay", "format": "cell-based", "conditions": "single 30 minutes exposure to 160 ppm gNO"}, "[2]": {"test": "Phase I safety study: serum nitrite/nitrate by Griess reagent", "format": "in vivo, human", "conditions": "during the trial, 160 ppm gNO", "description": "(§1) After obtaining informed consent, treatment was initiated within 5 days of enrollment. Subjects were housed in a hospital ward and received 160 ppm gNO for 30 minutes every four hours (Q4h), five times a day, for five consecutive days by inhalation. Subjects returned for follow-up evaluations 3, 7 and 21 days after the final gNO administration. Subject safety was determined by monitoring vital signs, methemoglobin levels, lung function, blood chemistry, hematology, prothrombin time, inflammatory cytokine/chemokines levels and endothelial activation. These parameters were compared to baseline and at various time-points during and after gNO administration.\nThese parameters were measured continuously during every gNO administration course and for 3.5 hours after the first treatment of the day. Daily serum samples were collected and frozen at −80° C. and the serum […] level was measured using the Griess reagent."}, "inflammatory cytokines": {"system": "inflammatory cytokines", "test": "Phase I safety study: plasma cytokines by cytometric bead array", "format": "in vivo, human", "conditions": "160 ppm gNO inhalation", "description": "as §1\nHematological assessment included a complete blood count and differentials (hemoglobin, hematocrit, red blood cell count, white blood cell count, white blood cell differential, and platelet count) were obtained in order to monitor blood chemistry, hematology and inflammation measurements. The blood chemistry profile included serum creatinine, and liver function tests such as aspartate aminotransferase (AST) serum glutamic oxaloacetic transaminase (SGOT), alkaline phosphatase, and gamma-glutamyl transferase (GGT). The effect of gNO on coagulation was determined by the prothrombin time (PT) and its derived measures of prothrombin ratio (PR) and international normalized ratio (INR). Heparinized plasma was collected at baseline and on days 1, 2, 4, and 5 of gNO administration, and on follow-up days 3, 7 and 21 and frozen at −80° C. Plasma cytokine levels were assessed using the human inflammation cytokine bead array kit (BD Bioscience, Canada). Plasma levels of angiopoietin Ang-1 and Ang-2 were determined by ELISA (R&D Systems, USA).\nTo assess whether gNO inhalation may cause inflammation or endothelial activation cytokines and the vascular endothelium activation factors Ang-1 and Ang-2 were quantified in peripheral plasma at baseline at various time points thereafter."}, "S. aureus (ATCC)": {"system": "S. aureus (ATCC)", "conditions": "200 ppm gNO, saline; cited from earlier work"}, "Klebsiella sp.#1": {"system": "Klebsiella sp.#1", "conditions": "200 ppm gNO, saline; cited from earlier work"}, "Klebsiella sp.#3": {"system": "Klebsiella sp.#3", "conditions": "200 ppm gNO, saline; cited from earlier work"}, "Enterobacter sp.": {"system": "Enterobacter sp.", "conditions": "200 ppm gNO, saline; cited from earlier work"}, "Group B Streptococci": {"system": "Group B Streptococci", "conditions": "200 ppm gNO, saline; cited from earlier work"}, "Mycobacterium": {"system": "Mycobacterium", "conditions": "200 ppm gNO, saline; cited from earlier work"}, "[3]": {"system": "all microorganisms tested", "conditions": "200 ppm gNO, cited from earlier work"}, "S. aureus": {"system": "S. aureus", "conditions": "cited from earlier work"}, "P. aeruginosa": {"system": "P. aeruginosa", "conditions": "cited from earlier work"}, "[4]": {"system": "influenza A/victoria/H3N2", "conditions": "160 ppm gNO, cited from earlier work"}, "[5]": {"conditions": "in vivo; cited from earlier work"}, "[6]": {"conditions": "rats, gNO concentrations below 200 ppm, 6 hours/day for 28 days; cited from earlier work"}, "[7]": {"system": "five planktonic species of methicillin resistant S. aureous (MRSA)", "conditions": "1,600 ppm hours of gNO; cited from earlier work"}, "MRSA biofilm": {"system": "MRSA biofilm", "conditions": "200 ppm gNO for eight hours (1,600 ppm hours); cited from earlier work"}, "Pseudomonas aeruginosa": {"system": "Pseudomonas aeruginosa", "conditions": "160 ppm gNO, intermittent 30 minute exposures, rat; cited from earlier work"}, "[8]": {"system": "chronic, non-healing wound", "conditions": "topical 200 ppm gNO, cited from earlier work"}, "[9]": {"conditions": "OSHA / Environmental Protection Agency; cited from earlier work"}, "[10]": {"conditions": "50-160 ppm gNO, solid media, vs medical air"}, "[11]": {"conditions": "gNO greater than 120 ppm, agar plates"}},
  "data": [
    {"compound": "[N]=O", "note": "[gNO, nitric oxide]", "values": [
      {"measurement": "viral viability", "setting": "[1]; starting level 500 PFU", "result": "substantially nullified"},
      {"measurement": "reduction of virus viability (factor)", "setting": "[1]; starting level 1000 PFU", "result": "~10"},
      {"measurement": "reduction of virus viability (factor)", "setting": "[1]; starting level 2000 PFU", "result": "~10"},
      {"measurement": "serum nitrite/nitrate levels versus baseline", "setting": "[2]", "result": "no significant differences"},
      {"measurement": "plasma IL-1b level versus baseline", "setting": "inflammatory cytokines", "result": "unaffected"},
      {"measurement": "plasma IL-6 level versus baseline", "setting": "inflammatory cytokines", "result": "unaffected"},
      {"measurement": "plasma IL-8 level versus baseline", "setting": "inflammatory cytokines", "result": "unaffected"},
      {"measurement": "plasma IL-10 level versus baseline", "setting": "inflammatory cytokines", "result": "unaffected"},
      {"measurement": "plasma IL-12p70 level versus baseline", "setting": "inflammatory cytokines", "result": "unaffected"},
      {"measurement": "plasma TNF level versus baseline", "setting": "inflammatory cytokines", "result": "unaffected"},
      {"measurement": "LD100", "setting": "S. aureus (ATCC)", "result": 4, "unit": "h"},
      {"measurement": "Latent Period", "setting": "S. aureus (ATCC)", "result": 3, "unit": "h"},
      {"measurement": "−2.5 Log10", "setting": "S. aureus (ATCC)", "result": 3.3, "unit": "hours"},
      {"measurement": "LD100", "setting": "Klebsiella sp.#1", "result": 6, "unit": "h"},
      {"measurement": "Latent Period", "setting": "Klebsiella sp.#1", "result": 3, "unit": "h"},
      {"measurement": "−2.5 Log10", "setting": "Klebsiella sp.#1", "result": 3.5, "unit": "hours"},
      {"measurement": "LD100", "setting": "Klebsiella sp.#3", "result": 6, "unit": "h"},
      {"measurement": "Latent Period", "setting": "Klebsiella sp.#3", "result": 3, "unit": "h"},
      {"measurement": "−2.5 Log10", "setting": "Klebsiella sp.#3", "result": 5.1, "unit": "hours"},
      {"measurement": "LD100", "setting": "Enterobacter sp.", "result": 6, "unit": "h"},
      {"measurement": "Latent Period", "setting": "Enterobacter sp.", "result": 4, "unit": "h"},
      {"measurement": "−2.5 Log10", "setting": "Enterobacter sp.", "result": 5.3, "unit": "hours"},
      {"measurement": "LD100", "setting": "Group B Streptococci", "result": 2, "unit": "h"},
      {"measurement": "Latent Period", "setting": "Group B Streptococci", "result": 1, "unit": "h"},
      {"measurement": "−2.5 Log10", "setting": "Group B Streptococci", "result": 1.5, "unit": "hours"},
      {"measurement": "LD100", "setting": "Mycobacterium", "result": 10, "unit": "h"},
      {"measurement": "Latent Period", "setting": "Mycobacterium", "result": 7, "unit": "h"},
      {"measurement": "−2.5 Log10", "setting": "Mycobacterium", "result": 9.2, "unit": "hours"},
      {"measurement": "bactericidal effect", "setting": "[3]", "result": "complete bactericidal effect on all microorganisms tested"},
      {"measurement": "reduction in CFU/mL", "setting": "[3]; every bacteria challenged", "result": "≥ 3", "unit": "log10"},
      {"measurement": "survival (downward bactericidal trend towards)", "setting": "S. aureus; [10]", "result": "5-10%"},
      {"measurement": "reduction of colony formation", "setting": "S. aureus; [11]", "result": "greater than 90%"},
      {"measurement": "time required to achieve the >90% reduction of colony formation", "setting": "S. aureus; gNO greater than 120 ppm", "result": "8 to 12", "unit": "h"},
      {"measurement": "survival (downward bactericidal trend towards)", "setting": "P. aeruginosa; [10]", "result": "5-10%"},
      {"measurement": "reduction of colony formation", "setting": "P. aeruginosa; [11]", "result": "greater than 90%"},
      {"measurement": "time required to achieve the >90% reduction of colony formation", "setting": "P. aeruginosa; gNO greater than 120 ppm", "result": "8 to 12", "unit": "h"},
      {"measurement": "infectivity", "setting": "[4]; MDCK plaque assay, A/Victoria/H3N2", "result": "reducing the infectivity"},
      {"measurement": "anti-viral effect, intermittent versus single exposure", "setting": "[4]; one 30 minute dose vs three 30 minute treatments Q4h", "result": "more evident in the intermittent form of exposure"},
      {"measurement": "half-life in the body", "setting": "[5]", "result": "less than 6 seconds"},
      {"measurement": "nitrate excreted in the urine, share of the nitric oxide dose inhaled", "setting": "[5]", "result": "more than 70%"},
      {"measurement": "deaths", "setting": "[6]", "result": "No deaths occurred"},
      {"measurement": "population of planktonic MRSA strains", "setting": "[7]", "result": "A reduction in the population of all five MRSA planktonic strains was observed"},
      {"measurement": "MRSA in biofilm", "setting": "MRSA biofilm", "result": "shown to reduce MRSA"},
      {"measurement": "pulmonary bioburden and leukocyte infiltration", "setting": "Pseudomonas aeruginosa", "result": "effective to reduce the pulmonary bioburden and leukocyte infiltration"},
      {"measurement": "reduction of wound size", "setting": "[8]; at one week", "result": 42, "unit": "%"},
      {"measurement": "biofilm on wound", "setting": "[8]; within the first three days of treatment", "result": "no longer visibly present"},
      {"measurement": "inhalation threshold limit value (TLV) as a time-weighted average (TWA)", "setting": "[9]", "result": 25, "unit": "ppm"}
    ]}
  ]
}
